pEC50: −log10 of the molar value.
Biological target: human GPR40 receptor (Homo sapiens, UniProt O14842)
Assay: Assay I: IP1 accumulation (IPOne HTRF) in 1321N1 cells stably expressing human GPR40
Type: cell-based
Conditions: 1321N1 cells expressing human GPR40, stimulation 1 hour at 37° C., 10% CO2, final LiCl 50 mM
Protocol: IP1 accumulation measurements using the IPOne assay system—1321N1 cells stably expressing human GPR40 receptor (Euroscreen, Belgium) are seeded 24 h before the assay in black clear-bottom collagen-coated 384-well plates in culture medium containing 10% FCS, 1% Na-Pyruvate and 400 μg/mL G418. IP1 is assayed according to the Manufacturers description (Cisbio Bioassays, France). In brief, the assay is started by substitution of the culture medium by stimulation buffer (Hepes 10 mM, CaCl2 1 mM, MgCl2 0.5 mM, KCl 4.2 mM, NaCl 146 mM and glucose 5.5 mM, pH 7.4) without LiCl. Cells are stimulated for 1 hour at 37° C., 10% CO2 by addition of the compounds that are diluted in stimulation buffer containing LiCl yielding a final LiCl concentration of 50 mM. Assays are stopped by adding HTRF-conjugates (IP1-d2 and Anti-IP1 cryptate Tb) and lysis buffer, provided by the manufacturer. After an incubation time of 1 hour at room temperature plates are measured using an EnVision™, Perkin Elmer. The obtained fluorescence ratios at 665/615 nM are then used to calculate the pEC50 values using GraphPad Prism 5 (Graphpad Software Inc, USA) by interpolation using an IP1 reference curve and subsequent sigmoidal curve fitting allowing for a variable hill slope.

human GPR40 receptor, sequence (O14842 whole entry): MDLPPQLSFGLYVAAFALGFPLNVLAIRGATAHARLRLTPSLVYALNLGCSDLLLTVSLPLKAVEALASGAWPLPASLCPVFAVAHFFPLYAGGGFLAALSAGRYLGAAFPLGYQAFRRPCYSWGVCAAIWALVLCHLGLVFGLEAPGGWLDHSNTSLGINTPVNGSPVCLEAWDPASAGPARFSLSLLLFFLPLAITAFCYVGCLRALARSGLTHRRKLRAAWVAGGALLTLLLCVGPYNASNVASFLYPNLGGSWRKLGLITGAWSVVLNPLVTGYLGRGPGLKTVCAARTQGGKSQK

Structure (SMILES) | pEC50
Cc1cc(OCC2CCN(S(C)(=O)=O)CC2)cc(C)c1-c1ccc(F)c2c1CC[C@H]2Oc1ccc2c(c1)OC[C@H]2CC(=O)O [Example 35, 2-((S)-6-((R)-4-(2,6-Dimethyl-4-((1-(methylsulfonyl)piperidin-4-yl)methoxy)phenyl)-7-fluoro-2,3-dihydro-1H-inden-1-yloxy)-2,3-dihydrobenzofuran-3-yl)acetic acid] | 7.24
Cc1c(OC2CCS(=O)(=O)CC2)cccc1-c1ccc(F)c2c1CC[C@H]2Oc1ccc2c(c1)OC[C@H]2CC(=O)O [Example 38, ((S)-6-{(R)-4-[3-(1,1-Dioxo-hexahydro-1-thiopyran-4-yloxy)-2-methyl-phenyl]-7-fluoro-indan-1-yloxy}-2,3-dihydro-benzofuran-3-yl)-acetic acid] | 7.12
Cc1cc(OCC2(C)CN(S(C)(=O)=O)C2)cc(C)c1-c1ccc(F)c2c1CC[C@H]2Oc1ccc2c(c1)OC[C@H]2CC(=O)O [Example 39, ((S)-6-{(R)-7-Fluoro-4-[4-(1-methanesulfonyl-3-methyl-azetidin-3-ylmethoxy)-2,6-dimethyl-phenyl]-indan-1-yloxy}-2,3-dihydro-benzofuran-3-yl)-acetic acid] | 8.10
COCCCS(=O)(=O)c1cc(C)c(-c2ccc(F)c3c2CC[C@H]3Oc2ccc3c(c2)OC[C@H]3CC(=O)O)c(C)c1 [Example 53, ((S)-6-{(R)-7-Fluoro-4-[4-(3-methoxy-propane-1-sulfonyl)-2,6-dimethyl-phenyl]-indan-1-yloxy}-2,3-dihydro-benzofuran-3-yl)-acetic acid] | 5.91
Cc1cc(OCCCS(C)(=O)=O)cc(C)c1-c1ccc(F)c2c1CC[C@H]2Oc1ccc2c(c1)OC[C@H]2CC(=O)O [Example 57, 2-((S)-6-((R)-4-(2,6-Dimethyl-4-(3-(methylsulfonyl)propoxy)phenyl)-7-fluoro-2,3-dihydro-1H-inden-1-yloxy)-2,3-dihydrobenzofuran-3-yl)acetic acid] | 7.59
Cc1c(OCCCS(C)(=O)=O)cccc1-c1ccc(F)c2c1CC[C@H]2Oc1ccc2c(c1)OC[C@H]2CC(=O)O [Example 58, 2-((3S)-6-((1R)-7-Fluoro-4-(2-methyl-3-(3-(methylsulfonyl)propoxy)phenyl)-2,3-dihydro-1H-inden-1-yloxy)-2,3-dihydrobenzofuran-3-yl)acetic acid] | 7.24
Cc1c(C(N)=O)cccc1-c1ccc(F)c2c1CC[C@H]2Oc1ccc2c(c1)OC[C@H]2CC(=O)O [Example 59, 2-((3S)-6-((1R)-4-(3-Carbamoyl-2-methylphenyl)-7-fluoro-2,3-dihydro-1H-inden-1-yloxy)-2,3-dihydrobenzofuran-3-yl)acetic acid] | 6.93
Cc1cc(C(N)=O)cc(C)c1-c1ccc(F)c2c1CC[C@H]2Oc1ccc2c(c1)OC[C@H]2CC(=O)O [Example 60, 2-((S)-6-((R)-4-(4-Carbamoyl-2,6-dimethylphenyl)-7-fluoro-2,3-dihydro-1H-inden-1-yloxy)-2,3-dihydrobenzofuran-3-yl)acetic acid] | 7.59
Cc1cc(C(=O)N(C)C)cc(C)c1-c1ccc(F)c2c1CC[C@H]2Oc1ccc2c(c1)OC[C@H]2CC(=O)O [Example 61, 2-((S)-6-((R)-4-(4-(Dimethylcarbamoyl)-2,6-dimethylphenyl)-7-fluoro-2,3-dihydro-1H-inden-1-yloxy)-2,3-dihydrobenzofuran-3-yl)acetic acid] | 7.29
CNC(=O)c1cc(C)c(-c2ccc(F)c3c2CC[C@H]3Oc2ccc3c(c2)OC[C@H]3CC(=O)O)c(C)c1 [Example 62, 2-((S)-6-((R)-4-(2,6-Dimethyl-4-(methylcarbamoyl)phenyl)-7-fluoro-2,3-dihydro-1H-inden-1-yloxy)-2,3-dihydrobenzofuran-3-yl)acetic acid] | 7.96
Cc1cc(C(=O)N2CCOCC2)cc(C)c1-c1ccc(F)c2c1CC[C@H]2Oc1ccc2c(c1)OC[C@H]2CC(=O)O [Example 63, 2-((S)-6-((R)-4-(2,6-Dimethyl-4-(morpholine-4-carbonyl)phenyl)-7-fluoro-2,3-dihydro-1H-inden-1-yloxy)-2,3-dihydrobenzofuran-3-yl)acetic acid] | 7.42
Cc1cc(OCCNC(=O)OC(C)(C)C)cc(C)c1-c1ccc(F)c2c1CC[C@H]2Oc1ccc2c(c1)OC[C@H]2CC(=O)O [Example 65, 2-((S)-6-((R)-4-(4-(2-(tert-Butoxycarbonylamino)ethoxy)-2,6-dimethylphenyl)-7-fluoro-2,3-dihydro-1H-inden-1-yloxy)-2,3-dihydrobenzofuran-3-yl)acetic acid] | 7.47
COc1cc(COc2cc(C)c(-c3ccc(F)c4c3CC[C@H]4Oc3ccc4c(c3)OC[C@H]4CC(=O)O)c(C)c2)ccn1 [Example 147, 2-((S)-6-((R)-7-fluoro-4-(4-((2-methoxypyridin-4-yl)methoxy)-2,6-dimethylphenyl)-2,3-dihydro-1H-inden-1-yloxy)-2,3-dihydrobenzofuran-3-yl)acetic acid] | 8.70
Cc1cc(OCc2ccnn2C)cc(C)c1-c1ccc(F)c2c1CC[C@H]2Oc1ccc2c(c1)OC[C@H]2CC(=O)O [Example 151, 2-((S)-6-((R)-4-(2,6-dimethyl-4-((1-methyl-1H-pyrazol-5-yl)methoxy)phenyl)-7-fluoro-2,3-dihydro-1H-inden-1-yloxy)-2,3-dihydrobenzofuran-3-yl)acetic acid] | 8.52
